In patent US20150291625A1 (PFIZER INC., priority 2012, published 2015):
“And” between values parts separate entries of the source, which are not always exact repeats. Equal values may be shown once. Where a name gives a salt, the structure may show the parent alone.

Tests used:
D1 [1] = target: T1, D1 (Homo sapiens, UniProt P21728); assay: Human D1 receptor binding assay ([3H]-SCH23390 competition); conditions: Human D1 Receptor Binding, Ki (nM), Geometric mean of 2-4 determinations, a: >=5 determinations, d: single determination
T1 sequence (P21728 whole entry): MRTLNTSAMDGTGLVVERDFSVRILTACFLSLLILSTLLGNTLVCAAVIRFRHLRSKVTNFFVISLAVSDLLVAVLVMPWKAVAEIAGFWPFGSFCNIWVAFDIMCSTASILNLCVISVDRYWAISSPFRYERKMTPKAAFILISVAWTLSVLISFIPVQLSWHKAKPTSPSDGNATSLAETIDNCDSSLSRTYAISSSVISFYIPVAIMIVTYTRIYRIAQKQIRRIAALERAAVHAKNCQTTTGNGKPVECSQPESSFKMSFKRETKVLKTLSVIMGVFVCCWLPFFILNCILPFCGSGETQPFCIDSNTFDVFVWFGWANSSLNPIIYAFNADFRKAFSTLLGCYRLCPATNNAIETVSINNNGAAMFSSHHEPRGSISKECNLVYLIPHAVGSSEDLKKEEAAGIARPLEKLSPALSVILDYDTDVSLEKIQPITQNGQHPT
Procedure: D1 binding assays were performed using over-expressing LTK human cell lines. […] These ligand and tissue concentrations were used in time course studies to determine linearity and equilibrium conditions for binding. Binding was at equilibrium with the specified amount of tissue in 30 minutes at 37° C. […] The pellet was resuspended in assay buffer (50 mM Tris (pH 7.4@ RT) containing 4 mM MgSO4 and 0.5 mM EDTA). […] After a 30 minute incubation period at 37° C., assay samples were rapidly filtered through Unifilter-96 GF/B PEI-coated filter plates and rinsed with 50 mM Tris buffer (pH 7.4 at 4° C.). […] Ki values were calculated according to the Cheng-Prusoff equation.

D1 [2] = target: T1, D1; assay: D1 cAMP HTRF assay (HEK293T/hD1#1 stable cell line); assay type: cell-based; design: expressed in transfected cells
Excerpt: This assay was used to determine the ability of a test compound to agonize (including partially agonize) D1. A Mab anti-cAMP labeled Cryptate visualizes the tracer. […] The signal, therefore, is inversely proportional to the concentration of cAMP in the sample.
The cAMP Dynamic kit was obtained from Cisbio International (Cisbio 62AM4PEJ). Multidrop Combi (Thermo Scientific) was used for assay additions. Envision (PerkinElmer) reader was used to read HTRF.
A HEK293T/hD1#1 stable cell line was constructed internally (Pfizer Ann Arbor). […] One mL aliquots of the cells were made in Cryo-vials and frozen at −80° C. for future use in the D1 HTRF assay.
Frozen cells were quickly thawed, re-suspended in 50 mL warm media and allowed to sit for 5 min prior to centrifugation (1000 rpm) at room temperature. Media was removed and cell pellet was re-suspended in PBS/0.5 μM IBMX generating 2e5 cells/mL. […] Cells and compounds were incubated at room temperature for 30 min. Working solutions of cAMP-D2 and anti-cAMP-cryptate were prepared according to Cisbio instructions. Using Multidrop, 5 μL cAMP-D2 working solution was added to the assay plate containing the test compound and cells. Using Multidrop, 5 μL anti-cAMP-cryptate working solutions was added to assay plate containing test compound, cells and cAMP-D2. Assay plate was incubated for 1 hour at room temperature. Assay plate was read on Envision plate reader using Cisbio recommended settings. A cAMP standard curve was generated using cAMP stock solution provided in the Cisbio kit.
Data analysis was done using computer software. Percent effects were calculated from the compound controls. Ratio EC50 was determined using the raw ratio data from the Envision reader. The cAMP standard curve was used in an analysis program to determine cAMP concentrations from raw ratio data. cAMP EC50 was determined using the calculated cAMP data.

Row | SMILES | Ki (D1 [1]) [nM] | EC50 (D1 [2])
1 | Cc1ncc2nccn2c1-c1ccc(Oc2nccc3occc23)cc1O [Example 57, 5-(furo[3,2-c]pyridin-4-yloxy)-2-(6-methylimidazo[1,2-a]pyrazin-5-yl)phenol] | 17.4 | 116 nM
2 | Cc1cc(Oc2nccc3occc23)ccc1-c1c(C)ncnc1N [Example 63, 5-[4-(furo[3,2-c]pyridin-4-yloxy)-2-methylphenyl]-6-methylpyrimidin-4-amine] | 210 | 1350 nM and 843 nM
3 | CCc1cc(Oc2nccc3occc23)ccc1-c1c(C)ncc2nccn12 [Example 64, 5-[2-ethyl-4-(furo[3,2-c]pyridin-4-yloxy)phenyl]-6-methylimidazo[1,2-a]pyrazine] | 12.1 | 134 nM
4 | Cc1ncc2nccn2c1-c1ccc(Oc2nccc3occc23)cc1F [Example 65, 5-[2-fluoro-4-(furo[3,2-c]pyridin-4-yloxy)phenyl]-6-methylimidazo[1,2-a]pyrazine] | 61.1 | 193 nM and 300 nM
5 | Cc1nccnc1-c1ccc(Oc2nccc3occc23)cc1OCc1c(C)noc1C [Example 66, 4-{3-[(3,5-dimethyl-1,2-oxazol-4-yl)methoxy]-4-(3-methylpyrazin-2-yl)phenoxy}furo[3,2-c]pyridine, formate salt] | 85.4 | 737 nM
6 | COc1cc(Oc2nccc3occc23)ccc1-c1c(C)ncnc1C [Example 71, 4-[4-(4,6-dimethylpyrimidin-5-yl)-3-methoxyphenoxy]furo[3,2-c]pyridine] | 50.5 | 298 nM and 965 nM
7 | Cc1ncnc(C)c1-c1ccc(Oc2nccc3occc23)cc1O [Example 72, 2-(4,6-dimethylpyrimidin-5-yl)-5-(furo[3,2-c]pyridin-4-yloxy)phenol] | 91.4 | 989 nM
8 | Cc1ncccc1-c1ccc(Oc2nccc3occc23)cc1OCCCN(C)C [Example 73, 3-[5-(furo[3,2-c]pyridin-4-yloxy)-2-(2-methylpyridin-3-yl)phenoxy]-N,N-dimethylpropan-1-amine, formate salt] | 37.7 | 748 nM and 966 nM
9 | COc1ncnc(C)c1-c1ccc(Oc2nccc3occc23)cc1F [Example 76, 4-[3-fluoro-4-(4-methoxy-6-methylpyrimidin-5-yl)phenoxy]furo[3,2-c]pyridine] | 139 | 903 nM and 2170 nM
10 | Cc1ncnc(C)c1-c1ccc(Oc2nccc3occc23)cc1 [Example 77, 4-[4-(4,6-dimethylpyrimidin-5-yl)phenoxy]furo[3,2-c]pyridine] | 45.6 | 200 nM and 674 nM
11 | Cc1nc(O)nc(C)c1-c1ccc(Oc2nccc3occc23)cc1 [Example 79, 5-[4-(furo[3,2-c]pyridin-4-yloxy)phenyl]-4,6-dimethylpyrimidin-2-ol] | 140 | 2550 nM and 1680 nM
12 | Cc1cc(Oc2nccc3occc23)ccc1-c1c(C)ncc2nc(C(F)(F)F)cn12 [Example 80, 5-[4-(furo[3,2-c]pyridin-4-yloxy)-2-methylphenyl]-6-methyl-2-(trifluoromethyl)imidazo[1,2-a]pyrazine] | 6.13 | 1200 nM and 987 nM
13 | Cc1cc(Oc2nccc3occc23)ccc1-c1cc(N)cnc1C [Example 86, 5-[4-(furo[3,2-c]pyridin-4-yloxy)-2-methylphenyl]-6-methylpyridin-3-amine] | 113 | 833 nM and 4870 nM

Results, then the compound that gave them:

Row | Ki (D1 [1]) [nM] | EC50 (D1 [2]) | SMILES
14 | 10.2 | 243 nM | FC(F)(F)c1cc(Oc2nccc3occc23)ccc1-c1cccc2nccn12 [Example 54, 4-[4-(imidazo[1,2-a]pyridin-5-yl)-3-(trifluoromethyl)phenoxy]furo[3,2-c]pyridine]
15 | 244 | > 29900 nM | Cc1cc(N(C)c2nccc3occc23)ccc1-c1cccc2nccn12 [Example 55, N-[4-(imidazo[1,2-a]pyridin-5-yl)-3-methylphenyl]-N-methylfuro[3,2-c]pyridin-4-amine]
16 | 98.7 | 633 nM and 435 nM | Cc1cc(Oc2nccc3occc23)ccc1-c1ccc(N)nc1C [Example 56, 5-[4-(furo[3,2-c]pyridin-4-yloxy)-2-methylphenyl]-6-methylpyridin-2-amine]
17 | 160 | 900 nM and 1110 nM | Cc1cc(Oc2nccc3occc23)ccc1-c1cncnc1C [Example 58, 4-[3-methyl-4-(4-methylpyrimidin-5-yl)phenoxy]furo[3,2-c]pyridine]
18 | 103 | 1010 nM and 1150 nM | Cc1cc(Oc2nccc3occc23)ccc1-c1cccc2[nH]c(=O)ccc12 [Example 59, 5-[4-(furo[3,2-c]pyridin-4-yloxy)-2-methylphenyl]quinolin-2(1H)-one]
19 | 178 | 2910 nM and 1040 nM | COc1ccc(-c2ccc(Oc3nccc4occc34)cc2C)c(C)n1 [Example 60, 4-[4-(6-methoxy-2-methylpyridin-3-yl)-3-methylphenoxy]furo[3,2-c]pyridine, trifluoroacetate salt]
20 | 228 | 1110 nM and 811 nM | Cc1nccnc1-c1ccc(Oc2nccc3occc23)cc1OCCCN(C)C [Example 61, 3-[5-(furo[3,2-c]pyridin-4-yloxy)-2-(3-methylpyrazin-2-yl)phenoxy]-N,N-dimethylpropan-1-amine, formate salt]
21 | 154 | 1480 nM | Cc1cccnc1COc1cc(Oc2nccc3occc23)ccc1-c1nccnc1C [Example 68, 4-{4-(3-methylpyrazin-2-yl)-3-[(3-methylpyridin-2-yl)methoxy]phenoxy}furo[3,2-c]pyridine, formate salt]
22 | 77.7 | 201 nM and 203 nM | Cc1ncnc(C)c1-c1ccc(Oc2nccc3occc23)cc1F [Example 69, 4-[4-(4,6-dimethylpyrimidin-5-yl)-3-fluorophenoxy]furo[3,2-c]pyridine]
23 | 124 | 424 nM and 1020 nM | Cc1ncnc(C#N)c1-c1ccc(Oc2nccc3occc23)cc1F [Example 70, 5-[2-fluoro-4-(furo[3,2-c]pyridin-4-yloxy)phenyl]-6-methylpyrimidine-4-carbonitrile]
24 | 21.6 | 364 nM | Cc1cc(Oc2nccc3occc23)ccc1-c1c(C)nc(N)nc1C [Example 75, 5-[4-(furo[3,2-c]pyridin-4-yloxy)-2-methylphenyl]-4,6-dimethylpyrimidin-2-amine]
25 | 48.3 | 885 nM and 1230 nM | CCc1noc(COc2cc(Oc3nccc4occc34)ccc2-c2cccnc2C)n1 [Example 78, 4-{3-[(3-ethyl-1,2,4-oxadiazol-5-yl)methoxy]-4-(2-methylpyridin-3-yl)phenoxy}furo[3,2-c]pyridine]
26 | 270 | 1770 nM | CNc1ncnc(C)c1-c1ccc(Oc2nccc3occc23)cc1C [Example 81, 5-[4-(furo[3,2-c]pyridin-4-yloxy)-2-methylphenyl]-N,6-dimethylpyrimidin-4-amine]
27 | 116 | 360 nM | Cc1cc(Oc2nccc3occc23)ccc1-c1c(C)nc(N)nc1C#N [Example 84, 2-amino-5-[4-(furo[3,2-c]pyridin-4-yloxy)-2-methylphenyl]-6-methylpyrimidine-4-carbonitrile]
28 | 75.3 | 1120 nM and 4880 nM | Cc1cc(Oc2nccc3occc23)ccc1-c1c(C)nc2cnccn12 [Example 85, 3-[4-(furo[3,2-c]pyridin-4-yloxy)-2-methylphenyl]-2-methylimidazo[1,2-a]pyrazine]
